# Assay results published in PubChem BioAssay (NCI).
#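 Assay format: 96-well plates, 48-hour exposure. Abbreviation: GI50, concentration required for 50% inhibition of growth. Definition used: TGI = concentration required for complete inhibition of growth.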
# Columns and labels:
# Test in all cases: NCI-60 cell line screen, 48 h
# A498 renal = system: A498 renal
# HCT-15 colon = system: HCT-15 colon
# HOP-62 NSCLC = system: HOP-62 NSCLC
# K-562 leukemia = system: K-562 leukemia
# KM12 colon = system: KM12 colon
# M14 melanoma = system: M14 melanoma
# NCI-H226 lung = system: NCI-H226 lung
# OVCAR-8 ovarian = system: OVCAR-8 ovarian
# SK-MEL-28 melanoma = system: SK-MEL-28 melanoma
# SNB-19 CNS = system: SNB-19 CNS
smiles,measurement,setting,value
COc1ccc(N=NC2=C(O)CCC2=O)cc1,TGI,A498 renal,> 100 µM
same,TGI,HCT-15 colon,> 100 µM
same,TGI,HOP-62 NSCLC,> 100 µM
same,TGI,K-562 leukemia,> 100 µM
same,TGI,KM12 colon,> 100 µM
same,TGI,M14 melanoma,> 100 µM
same,TGI,NCI-H226 lung,> 100 µM
same,TGI,OVCAR-8 ovarian,> 100 µM
same,TGI,SK-MEL-28 melanoma,> 100 µM
same,TGI,SNB-19 CNS,> 100 µM
CCOP(=O)(OCC)/C(=C/n1c(=S)[nH]c2ccccc21)C(=O)OC,TGI,A498 renal,> 100 µM
same,TGI,HCT-15 colon,> 52.2 µM
same,TGI,HOP-62 NSCLC,> 100 µM
same,TGI,K-562 leukemia,> 100 µM
same,TGI,KM12 colon,> 100 µM
same,TGI,M14 melanoma,> 100 µM
same,TGI,NCI-H226 lung,> 100 µM
same,TGI,OVCAR-8 ovarian,> 100 µM
same,TGI,SK-MEL-28 melanoma,> 100 µM
same,GI50,SNB-19 CNS,> 100 µM
same,TGI,SNB-19 CNS,> 100 µM
CSc1ccc(N2C(=O)C3c4[nH]c5ccccc5c4C4CCC(C(C)(C)C)CC4C3C2=O)cc1 (stereo not given),TGI,A498 renal,33.7 µM
same,TGI,HCT-15 colon,> 100 µM
same,TGI,HOP-62 NSCLC,28.6 µM
same,TGI,K-562 leukemia,34.5 µM
same,TGI,KM12 colon,> 100 µM
same,TGI,M14 melanoma,> 100 µM
same,TGI,NCI-H226 lung,42.9 µM
same,TGI,OVCAR-8 ovarian,27.8 µM
same,TGI,SK-MEL-28 melanoma,35.1 µM
same,TGI,SNB-19 CNS,45.2 µM
C=CCC1(CN(C)C)CC/C(=C\c2ccc3c(c2)OCO3)C1=O (stereo not given),TGI,A498 renal,> 100 µM
same,TGI,HCT-15 colon,> 100 µM
same,TGI,HOP-62 NSCLC,> 100 µM
same,TGI,K-562 leukemia,> 100 µM
same,TGI,KM12 colon,> 100 µM
same,TGI,M14 melanoma,> 100 µM
same,TGI,NCI-H226 lung,> 100 µM
same,TGI,OVCAR-8 ovarian,> 100 µM
same,TGI,SK-MEL-28 melanoma,> 100 µM
same,TGI,SNB-19 CNS,> 100 µM
O=C(Nc1ccc(Br)c2ccccc12)c1ccc2ccccc2c1O,TGI,A498 renal,30.8 µM
same,TGI,HCT-15 colon,7.1 µM
same,TGI,HOP-62 NSCLC,14.8 µM
same,TGI,K-562 leukemia,> 100 µM
same,TGI,KM12 colon,13.7 µM
same,TGI,M14 melanoma,18.3 µM
same,TGI,NCI-H226 lung,6.39 µM
same,TGI,OVCAR-8 ovarian,19.2 µM
same,TGI,SK-MEL-28 melanoma,48.1 µM
same,TGI,SNB-19 CNS,> 100 µM
Cc1cc(-c2ccccc2)nc(Nc2cc3ccccc3[nH]2)n1,TGI,A498 renal,> 100 µM
same,TGI,HCT-15 colon,> 100 µM
same,TGI,HOP-62 NSCLC,> 100 µM
same,TGI,K-562 leukemia,> 100 µM
same,TGI,KM12 colon,> 100 µM
same,TGI,M14 melanoma,> 100 µM
same,TGI,NCI-H226 lung,> 100 µM
same,TGI,OVCAR-8 ovarian,> 100 µM
same,TGI,SK-MEL-28 melanoma,> 100 µM
same,TGI,SNB-19 CNS,> 100 µM
CC(=O)C1=C(C)N(Cc2ccccc2)C2(O)C=CC(=O)C3=C(O)c4ccccc4C(=O)C312 (stereo not given),GI50,A498 renal,22.7 µM
same,TGI,A498 renal,38.1 µM
same,GI50,HCT-15 colon,1.81 µM
same,TGI,HCT-15 colon,4.51 µM
same,GI50,HOP-62 NSCLC,13.5 µM
same,TGI,HOP-62 NSCLC,34.3 µM
same,GI50,K-562 leukemia,8.68 µM
same,TGI,K-562 leukemia,> 100 µM
same,GI50,KM12 colon,9.05 µM
same,TGI,KM12 colon,26 µM
same,GI50,M14 melanoma,3.18 µM
same,TGI,M14 melanoma,9.03 µM
same,GI50,NCI-H226 lung,8.12 µM
same,TGI,NCI-H226 lung,22.1 µM
same,GI50,OVCAR-8 ovarian,6.25 µM
same,TGI,OVCAR-8 ovarian,30 µM
same,GI50,SK-MEL-28 melanoma,2.36 µM
same,TGI,SK-MEL-28 melanoma,6.1 µM
same,GI50,SNB-19 CNS,16 µM
same,TGI,SNB-19 CNS,44.1 µM
Cc1nnc(N/N=C/c2ccc([N+](=O)[O-])o2)[nH]c1=O,GI50,A498 renal,0.756 µM
same,TGI,A498 renal,14.3 µM
same,GI50,HCT-15 colon,1.86 µM
same,TGI,HCT-15 colon,> 100 µM
same,GI50,HOP-62 NSCLC,1.45 µM
same,TGI,HOP-62 NSCLC,> 68.2 µM
same,GI50,K-562 leukemia,0.796 µM
same,TGI,K-562 leukemia,> 100 µM
same,GI50,KM12 colon,0.575 µM
same,TGI,KM12 colon,> 100 µM
same,GI50,M14 melanoma,2.89 µM
same,TGI,M14 melanoma,> 100 µM
same,GI50,NCI-H226 lung,1.46 µM
same,TGI,NCI-H226 lung,25.4 µM
same,GI50,OVCAR-8 ovarian,0.785 µM
same,TGI,OVCAR-8 ovarian,> 100 µM
same,GI50,SK-MEL-28 melanoma,0.815 µM
same,TGI,SK-MEL-28 melanoma,> 100 µM
same,GI50,SNB-19 CNS,0.779 µM
same,TGI,SNB-19 CNS,> 100 µM
CC1=CC(C)=N/C(=N/S(=O)(=O)c2cc(C)c(Cl)cc2SCc2ccccc2)NN1,GI50,A498 renal,> 100 µM
same,TGI,A498 renal,> 100 µM
same,GI50,HCT-15 colon,> 100 µM
same,TGI,HCT-15 colon,> 100 µM
same,GI50,HOP-62 NSCLC,82.5 µM
same,TGI,HOP-62 NSCLC,> 100 µM
same,GI50,K-562 leukemia,> 100 µM
same,TGI,K-562 leukemia,> 100 µM
same,GI50,KM12 colon,> 100 µM
same,TGI,KM12 colon,> 100 µM
same,GI50,M14 melanoma,> 100 µM
same,TGI,M14 melanoma,> 100 µM
same,GI50,NCI-H226 lung,> 100 µM
same,TGI,NCI-H226 lung,> 100 µM
same,GI50,OVCAR-8 ovarian,> 100 µM
same,TGI,OVCAR-8 ovarian,> 100 µM
same,GI50,SK-MEL-28 melanoma,> 100 µM
same,TGI,SK-MEL-28 melanoma,> 100 µM
same,GI50,SNB-19 CNS,> 100 µM
same,TGI,SNB-19 CNS,> 100 µM
CC(NNC(=S)N1CCN(c2ccccn2)CC1)c1nccc2ccccc12 (stereo not given),TGI,A498 renal,17.3 µM
same,TGI,HCT-15 colon,17.3 µM
same,TGI,HOP-62 NSCLC,15.5 µM
same,TGI,K-562 leukemia,14.2 µM
same,TGI,KM12 colon,19 µM
same,TGI,M14 melanoma,2.46 µM
same,TGI,NCI-H226 lung,8.11 µM
same,TGI,OVCAR-8 ovarian,15.7 µM
same,TGI,SK-MEL-28 melanoma,18.5 µM
same,TGI,SNB-19 CNS,17 µM
COC(=O)Nc1nc2ccc(C(=O)c3cccc(I)c3)cc2[nH]1,GI50,A498 renal,0.0434 µM
same,TGI,A498 renal,0.614 µM
same,GI50,HCT-15 colon,0.0459 µM
same,TGI,HCT-15 colon,13.2 µM
same,GI50,HOP-62 NSCLC,0.304 µM
same,TGI,HOP-62 NSCLC,38.5 µM
same,GI50,K-562 leukemia,0.0364 µM
same,TGI,K-562 leukemia,14.2 µM
same,GI50,KM12 colon,0.0418 µM
same,TGI,KM12 colon,5.7 µM
same,GI50,M14 melanoma,0.072 µM
same,TGI,M14 melanoma,20.7 µM
same,GI50,NCI-H226 lung,0.259 µM
same,TGI,NCI-H226 lung,25.4 µM
same,GI50,OVCAR-8 ovarian,0.132 µM
same,TGI,OVCAR-8 ovarian,30.4 µM
same,GI50,SK-MEL-28 melanoma,1.13 µM
same,TGI,SK-MEL-28 melanoma,> 81.2 µM
same,GI50,SNB-19 CNS,0.0625 µM
same,TGI,SNB-19 CNS,> 39.8 µM
O=C1/C=C/[C@@H](O)[C@@H]2C[C@@H](O)C[C@H]2/C=C/CCC[C@H](CCO)O1,GI50,A498 renal,0.0442 µM
same,TGI,A498 renal,0.274 µM
same,GI50,HCT-15 colon,0.35 µM
same,TGI,HCT-15 colon,> 100 µM
same,GI50,HOP-62 NSCLC,0.237 µM
same,TGI,HOP-62 NSCLC,> 31.6 µM
same,GI50,K-562 leukemia,0.365 µM
same,TGI,K-562 leukemia,> 100 µM
same,GI50,KM12 colon,0.0584 µM
same,TGI,KM12 colon,0.268 µM
same,GI50,M14 melanoma,0.155 µM
same,TGI,M14 melanoma,> 100 µM
same,GI50,NCI-H226 lung,0.0684 µM
same,TGI,NCI-H226 lung,0.287 µM
same,GI50,OVCAR-8 ovarian,0.153 µM
same,GI50,SK-MEL-28 melanoma,0.0466 µM
same,TGI,SK-MEL-28 melanoma,0.56 µM
same,GI50,SNB-19 CNS,0.377 µM
same,TGI,SNB-19 CNS,> 100 µM
CCOC(=O)N1CCC(N=C2CSc3nnc(-c4cc(C(F)(F)F)cc(C(F)(F)F)c4)n3N2)CC1,GI50,A498 renal,1.94 µM
same,TGI,A498 renal,5.52 µM
same,GI50,HCT-15 colon,2.29 µM
same,TGI,HCT-15 colon,5.4 µM
same,GI50,HOP-62 NSCLC,2.17 µM
same,TGI,HOP-62 NSCLC,4.03 µM
same,GI50,K-562 leukemia,2.88 µM
same,TGI,K-562 leukemia,6.92 µM
same,GI50,KM12 colon,2.04 µM
same,TGI,KM12 colon,3.95 µM
same,GI50,M14 melanoma,1.95 µM
same,TGI,M14 melanoma,3.54 µM
same,GI50,NCI-H226 lung,2.16 µM
same,TGI,NCI-H226 lung,5.02 µM
same,GI50,OVCAR-8 ovarian,2.44 µM
same,TGI,OVCAR-8 ovarian,6.25 µM
same,GI50,SK-MEL-28 melanoma,1.87 µM
same,TGI,SK-MEL-28 melanoma,3.75 µM
same,GI50,SNB-19 CNS,3.14 µM
same,TGI,SNB-19 CNS,11.9 µM
Nc1ccc(C#Cc2ccccc2C#CCCCCO)cc1,GI50,A498 renal,19.8 µM
same,TGI,A498 renal,42.1 µM
same,GI50,HCT-15 colon,15.3 µM
same,TGI,HCT-15 colon,28.7 µM
same,GI50,HOP-62 NSCLC,15.2 µM
same,TGI,HOP-62 NSCLC,28.7 µM
same,GI50,K-562 leukemia,19.7 µM
same,TGI,K-562 leukemia,40.8 µM
same,GI50,KM12 colon,15.9 µM
same,TGI,KM12 colon,33.4 µM
same,GI50,M14 melanoma,14.1 µM
same,TGI,M14 melanoma,28.1 µM
same,GI50,NCI-H226 lung,17.5 µM
same,TGI,NCI-H226 lung,40.5 µM
same,GI50,OVCAR-8 ovarian,17 µM
same,TGI,OVCAR-8 ovarian,33.5 µM
same,GI50,SK-MEL-28 melanoma,9.31 µM
same,TGI,SK-MEL-28 melanoma,21.9 µM
same,GI50,SNB-19 CNS,17.5 µM
same,TGI,SNB-19 CNS,31.3 µM
Cc1ccsc1C(NC(=O)c1ccccc1)c1cc(Cl)c2cccnc2c1O (stereo not given),GI50,A498 renal,0.936 µM
same,TGI,A498 renal,7.29 µM
same,GI50,HCT-15 colon,0.266 µM
same,TGI,HCT-15 colon,16.6 µM
same,GI50,HOP-62 NSCLC,0.471 µM
same,TGI,HOP-62 NSCLC,5.68 µM
same,GI50,K-562 leukemia,0.381 µM
same,TGI,K-562 leukemia,> 100 µM
same,GI50,KM12 colon,0.493 µM
same,TGI,KM12 colon,16 µM
same,GI50,M14 melanoma,0.892 µM
same,TGI,M14 melanoma,9.43 µM
same,GI50,NCI-H226 lung,1.4 µM
same,TGI,NCI-H226 lung,7.35 µM
same,GI50,OVCAR-8 ovarian,0.405 µM
same,TGI,OVCAR-8 ovarian,24 µM
same,GI50,SK-MEL-28 melanoma,0.688 µM
same,TGI,SK-MEL-28 melanoma,18.9 µM
same,GI50,SNB-19 CNS,0.394 µM
same,TGI,SNB-19 CNS,15.7 µM
